The record followed here is patent US12036271B2, “Peptides and combination of peptides as targets or active ingredients for use in immunotherapy against AML and other cancers” (Immatics Biotechnologies GmbH, priority 2016, dated 2024).

This test has as its system CD8+ T cells. As to the kind of experiment: In vitro immunogenicity: T-cell priming with aAPCs loaded with peptide/MHC complexes and anti-CD28, pMHC multimer readout. The test is classed as cell-based, human. Conditions: HLA-A*02 healthy donor CD8+ T cells, multimer staining. The source says: In order to obtain information regarding the immunogenicity of the TUMAPs of the present invention, the inventors performed investigations using an in vitro T-cell priming assay based on repeated stimulations of CD8+ T cells with artificial antigen presenting cells (aAPCs) loaded with peptide/MHC complexes and anti-CD28 antibody.
In order to perform in vitro stimulations by artificial antigen presenting cells loaded with peptide-MHC complex (pMHC) and anti-CD28 antibody, the inventors first isolated CD8+ T cells from fresh HLA-A*02 leukapheresis products via positive selection using CD8 microbeads (Miltenyi Biotec, Bergisch-Gladbach, Germany) of healthy donors obtained from the University clinics Mannheim, Germany, after informed consent.
PBMCs and isolated CD8+ lymphocytes were incubated in T-cell medium (TCM) until use consisting of RPMI-Glutamax (Invitrogen, Karlsruhe, Germany) supplemented with 10% heat inactivated human AB serum (PAN-Biotech, Aidenbach, Germany), 100 U/ml Penicillin/100 μg/ml Streptomycin (Cambrex, Cologne, Germany), 1 mM sodium pyruvate (CC Pro, Oberdorla, Germany), 20 μg/ml Gentamycin (Cambrex). 2.5 ng/ml IL-7 (PromoCell, Heidelberg, Germany) and 10 U/ml IL-2 (Novartis Pharma, Nürnberg, Germany) were also added to the TCM at this step.
Generation of pMHC/anti-CD28 coated beads, T-cell stimulations and readout was performed in a highly defined in vitro system using four different pMHC molecules per stimulation condition and 8 different pMHC molecules per readout condition.
The purified co-stimulatory mouse IgG2a anti human CD28 Ab 9.3 (Jung et al., 1987) was chemically biotinylated using Sulfo-N-hydroxysuccinimidobiotin as recommended by the manufacturer (Perbio, Bonn, Germany). Beads used were 5.6 μm diameter streptavidin coated polystyrene particles (Bangs Laboratories, Illinois, USA).
800.000 beads/200 μl were coated in 96-well plates in the presence of 4×12.5 ng different biotin-pMHC, washed and 600 ng biotin anti-CD28 were added subsequently in a volume of 200 μl. Stimulations were initiated in 96-well plates by co-incubating 1×10^6 CD8+ T cells with 2×10^5 washed coated beads in 200 μl TCM supplemented with 5 ng/ml IL-12 (PromoCell) for 3 days at 37° C. Half of the medium was then exchanged by fresh TCM supplemented with 80 U/ml IL-2 and incubating was continued for 4 days at 37° C. This stimulation cycle was performed for a total of three times. For the pMHC multimer readout using eight different pMHC molecules per condition, a two-dimensional combinatorial coding approach was used as previously described (Andersen et al., 2012) with minor modifications encompassing coupling to 5 different fluorochromes. Finally, multimeric analyses were performed by staining the cells with Live/dead near IR dye (Invitrogen, Karlsruhe, Germany), CD8-FITC antibody clone SK1 (BD, Heidelberg, Germany) and fluorescent pMHC multimers. For analysis, a BD LSRII SORP cytometer equipped with appropriate lasers and filters was used. Peptide specific cells were calculated as percentage of total CD8+ cells. Evaluation of multimeric analysis was done using the FlowJo software (Tree Star, Oregon, USA). In vitro priming of specific multimer+CD8+ lymphocytes was detected by comparing to negative control stimulations.
Take “198 (KIQEILTQV; listed as Homo sapiens) [compound 198]”: the wells entry was “++ (20%-49% = ++)”.
The entry for “190 (SLYKGLLSV; listed as Homo sapiens) [compound 190]” is “++ (20%-49% = ++)”; for “192 (GLAALAVHL; listed as Homo sapiens) [compound 192]” it is “++ (20%-49% = ++)”; for “189 (RLFEEVLGV; listed as Homo sapiens) [compound 189]” it is “++ (20%-49% = ++)”.
The entry for “191 (ALSVLRLAL; listed as Homo sapiens) [compound 191]” is “++ (20%-49% = ++)”.
The entry for “195 (FLFVDPELV; listed as Homo sapiens) [compound 195]” is “+++ (50%-69% = +++)”.
For “196 (ILVDWLVQV; listed as Homo sapiens) [compound 196]”, the wells result was “++ (20%-49% = ++)”.
The entry for “194 (LLWGNLPEI; listed as Homo sapiens) [compound 194]” is “++ (20%-49% = ++)”.
Turning to “193 (FLLAEDTKV; listed as Homo sapiens) [compound 193]”, the wells result was “++ (20%-49% = ++)”.
Then “197 (VLLNEILEQV; listed as Homo sapiens) [compound 197]”, with “++ (20%-49% = ++)”.
